According to patent publication US4272437A, “Antibacterial agents, and 4-thio azetidinone intermediates” (priority 1979, dated 1981):
In brackets after ≈: the same amount, converted by molar mass. Read-outs that look alike come from different tables or passages of the source.

Experiments:
[1] = tested on: Ser. marcescens A-20019; assay: MIC, tube dilution, Serratia marcescens A20019; assay type: cell-based; settings: overnight 37° C.; for Minimum Inhibitory Concentration (M.I.C.): Serratia marcescens A20019
Description: (§1) Representative compounds of the present invention were subjected to in vitro antibiotic screening against a variety of microorganisms.

[2] = tested on: Staph. aureus A-9537 and 50% serum; assay: MIC, tube dilution, Staph. aureus A9537 + 50% serum; assay type: cell-based, Staphylococcus aureus; settings: overnight 37° C.
Description: as §1

[3] = tested on: Ent. cloacae A-9659; assay: MIC, tube dilution, Enterobacter cloacae A9659; assay type: cell-based; settings: overnight 37° C.; for Minimum Inhibitory Concentration (M.I.C.): Enterobacter cloacae A9659
Description: as §1

[4] = tested on: Pr. morganii A-15153; assay: MIC, tube dilution, Proteus morganii A15153; assay type: cell-based; settings: overnight 37° C.; for Minimum Inhibitory Concentration (M.I.C.): Proteus morganii A15153
Description: as §1

[5] = tested on: E. coli A-15119; assay: MIC, tube dilution, Escherichia coli A15119; assay type: cell-based; settings: overnight 37° C.; for Minimum Inhibitory Concentration (M.I.C.): E. coli A15119
Description: as §1

[6] = tested on: Pr. vulgaris A-9716; assay: MIC, tube dilution, Proteus vulgaris / Proteus mirabilis A9716; assay type: cell-based, Proteus vulgaris (name changed to Proteus mirabilis); settings: Proteus vulgaris / Proteus mirabilis A9716; overnight 37° C.
Description: as §1

[7] = tested on: Pr. mirabilis A-9900; assay: MIC, tube dilution, Proteus mirabilis A9900; assay type: cell-based; settings: overnight 37° C.; for Minimum Inhibitory Concentration (M.I.C.): Proteus mirabilis A9900
Description: as §1

[8] = tested on: Str. pneumoniae A-9585; assay: MIC, tube dilution, Streptococcus pneumoniae A9585; assay type: cell-based; settings: Str. pneumoniae A9585; overnight 37° C., Nutrient Broth
Description: as §1

[9] = tested on: Staph. aureus A-9537; assay: MIC, tube dilution, Staphylococcus aureus A9537; assay type: cell-based; settings: overnight 37° C., Nutrient Broth; for Minimum Inhibitory Concentration (M.I.C.): Staph. aureus A9537
Description: as §1

[10] = tested on: Staph. aureus (Pen-Res) A-9606; assay: MIC, tube dilution, Staphylococcus aureus A9606 (Pen-Res); assay type: cell-based; settings: Staph. aureus A9606 (Pen-Res), overnight 37° C.
Description: as §1

[11] = tested on: Klebsiella species A20468; assay: MIC, tube dilution, Klebsiella species A20468; assay type: cell-based; settings: Klebsiella species (K. pneumoniae) A20468, overnight 37° C.
Description: as §1

[12] = tested on: Providencia stuartii A21205; assay: MIC, tube dilution, Providencia stuartii (Pr. rettgeri) A21205; assay type: cell-based; settings: overnight 37° C.; for Minimum Inhibitory Concentration (M.I.C.): Providencia stuartii (Pr. rettgeri) A21205
Description: as §1

[13] = tested on: K. pneumoniae A-15130; assay: MIC, tube dilution, Klebsiella pneumoniae A15130; assay type: cell-based; settings: overnight 37° C.; for Minimum Inhibitory Concentration (M.I.C.): K. pneumoniae A15130
Description: as §1

[14] = tested on: Str. pyogenes A-9604; assay: MIC, tube dilution, Streptococcus pyogenes A9604; assay type: cell-based; settings: overnight 37° C., Nutrient Broth; for Minimum Inhibitory Concentration (M.I.C.): Str. pyogenes A9604
Description: as §1

[15] = tested on: Ent. cloacae A-9656; assay: MIC, tube dilution, Enterobacter cloacae A9656; assay type: cell-based; settings: overnight 37° C.; for Minimum Inhibitory Concentration (M.I.C.): Enterobacter cloacae A9656
Description: as §1

[16] = tested on: E. coli A-20341-1; assay: MIC, tube dilution, Escherichia coli A20341-1; assay type: cell-based
Description: as §1

[17] = tested on: Ps. aeruginosa A-21213; assay: MIC, tube dilution, Pseudomonas aeruginosa A21213; assay type: cell-based; settings: Pseudomonas aeruginosa A21213, overnight 37° C.
Description: as §1

[18] = tested on: Ps. aeruginosa A-9843A; assay: MIC, tube dilution, Pseudomonas aeruginosa A9843A; assay type: cell-based; settings: overnight 37° C.
Description: as §1

[19] = tested on: Str. faecalis A-20688; assay: MIC, tube dilution, Streptococcus faecalis A20688; assay type: cell-based; settings: overnight 37° C.; for Minimum Inhibitory Concentration (M.I.C.): Str. faecalis A20688
Description: as §1

[20] = tested on: Staph. aureus (Meth-Res) A-15097; assay: MIC, tube dilution, Staphylococcus aureus A15097 (Meth-Res); assay type: cell-based; settings: Staph. aureus A15097 (Meth-Res), overnight 37° C.
Description: as §1

[21] = Staphylococcus aureus, read-out: Minimum Inhibitory Concentration (M.I.C.)
[22] = read-out: Minimum Inhibitory Concentration (M.I.C.)

Compound	Minimum Inhibitory Concentration (M.I.C.) [1]	Minimum Inhibitory Concentration (M.I.C.) [2]	Minimum Inhibitory Concentration (M.I.C.) [3]	Minimum Inhibitory Concentration (M.I.C.) [4]	Minimum Inhibitory Concentration (M.I.C.) [5]	Minimum Inhibitory Concentration (M.I.C.) [7]	Minimum Inhibitory Concentration (M.I.C.) [8]	Minimum Inhibitory Concentration (M.I.C.) [9]	Minimum Inhibitory Concentration (M.I.C.) [10]	Minimum Inhibitory Concentration (M.I.C.) [11]	Minimum Inhibitory Concentration (M.I.C.) [12]	Minimum Inhibitory Concentration (M.I.C.) [13]	Minimum Inhibitory Concentration (M.I.C.) [14]	Minimum Inhibitory Concentration (M.I.C.) [15]	Minimum Inhibitory Concentration (M.I.C.) [19]	Minimum Inhibitory Concentration (M.I.C.) [20]	further results
CC1=C(C(=O)O)N2C(=O)C[C@H]2S1 [Preparation 4(+), (+)-2-Methylpenem-3-carboxylic Acid]	4 µg/mL	4 µg/mL	8 µg/mL	8 µg/mL	4 µg/mL	4 µg/mL	0.06 µg/mL	0.5 µg/mL	0.5 µg/mL	> 125 µg/mL	4 µg/mL	8 µg/mL	0.25 µg/mL	8 µg/mL	–	–	Minimum Inhibitory Concentration (M.I.C.) [6]: 4 µg/mL
CSCC1=C(C(=O)O)N2C(=O)C[C@H]2S1 [Preparation 9, 2-Methylthiomethylpenem-3-carboxylic Acid]	–	–	–	–	–	–	–	–	4 µg/mL	–	–	–	–	8 µg/mL	32 µg/mL	8 µg/mL	MIC ([1]; Serratia marcescens, A20019, Serratia marcescens A20019, read-out: Minimum Inhibitory Concentration (M.I.C.)): 4 µg/mL (≈ 17.3 µM); MIC [2, 21]: 63 µg/mL; MIC ([3]; Enterobacter cloacae, A9659, Enterobacter cloacae A9659, read-out: Minimum Inhibitory Concentration (M.I.C.)): 4 µg/mL (≈ 17.3 µM); MIC ([4]; Morganella morganii, A15153, Proteus morganii A15153, read-out: Minimum Inhibitory Concentration (M.I.C.)): 4 µg/mL (≈ 17.3 µM); MIC ([5]; Escherichia coli, A15119, E. coli A15119, read-out: Minimum Inhibitory Concentration (M.I.C.)): 1 µg/mL (≈ 4.32 µM); MIC ([7]; Proteus mirabilis, A9900, Proteus mirabilis A9900, read-out: Minimum Inhibitory Concentration (M.I.C.)): 1 µg/mL (≈ 4.32 µM); MIC ([16]; Escherichia coli, A203411, E. coli A20341-1; overnight 37° C.; read-out: Minimum Inhibitory Concentration (M.I.C.)): 63 µg/mL (≈ 272 µM); MIC ([16]; Escherichia coli, A203411; E. coli A20341-1; overnight 37° C.; read-out: Minimum Inhibitory Concentration (M.I.C.)): > 125 µg/mL; MIC ([9]; Staphylococcus aureus, A9537, Staph. aureus A9537, read-out: Minimum Inhibitory Concentration (M.I.C.)): 0.5 µg/mL (≈ 2.16 µM); MIC [10, 21]: 8 µg/mL (≈ 34.6 µM); MIC [17, 22]: > 125 µg/mL; MIC ([18]; Pseudomonas aeruginosa, A9843A, read-out: Minimum Inhibitory Concentration (M.I.C.), Pseudomonas aeruginosa A9843A): > 125 µg/mL; MIC [11, 22]: > 125 µg/mL; MIC ([12]; Providencia stuartii, A21205, Providencia stuartii (Pr. rettgeri) A21205, read-out: Minimum Inhibitory Concentration (M.I.C.)): 2 µg/mL (≈ 8.65 µM); MIC ([13]; Klebsiella pneumoniae, A15130, K. pneumoniae A15130, read-out: Minimum Inhibitory Concentration (M.I.C.)): 16 µg/mL (≈ 69.2 µM); MIC ([19]; Enterococcus faecalis, A20688, Str. faecalis A20688, read-out: Minimum Inhibitory Concentration (M.I.C.)): 63 µg/mL (≈ 272 µM); MIC ([14]; Streptococcus pyogenes, A9604, Str. pyogenes A9604, read-out: Minimum Inhibitory Concentration (M.I.C.)): 0.25 µg/mL (≈ 1.08 µM); MIC [20, 21]: 16 µg/mL (≈ 69.2 µM); MIC ([15]; Enterobacter cloacae, A9656, Enterobacter cloacae A9656, read-out: Minimum Inhibitory Concentration (M.I.C.)): 16 µg/mL (≈ 69.2 µM)
CCC1C(=O)N2C(C(=O)[O-])=C(C)S[C@H]12.[Na+] (stereo partly drawn) [1 (trans), Sodium 6-Ethyl-2-methylpenem-3-carboxylate]	> 125 µg/mL	> 63 µg/mL	> 125 µg/mL	> 125 µg/mL	125 µg/mL	125 µg/mL	2 µg/mL	8 µg/mL	8 µg/mL	> 125 µg/mL	63 µg/mL	> 125 µg/mL	4 µg/mL	> 125 µg/mL	> 125 µg/mL	8 µg/mL	Minimum Inhibitory Concentration (M.I.C.) ([16]; E. coli A20341-1; overnight 37° C.): 125 µg/mL; Minimum Inhibitory Concentration (M.I.C.) [17]: > 125 µg/mL; Minimum Inhibitory Concentration (M.I.C.) ([18]; Pseudomonas aeruginosa A9843A): > 125 µg/mL
